Assay results from US8586611B2 (priority 2005, dated 2013).
Like-named read-outs stand apart in the source and are kept apart here.

Assays:
Format in all cases: in vivo
Plasmopara viticola = test: Test B: grape downy mildew, spray 24 h after inoculation (disease rating, 100 = 100% disease control)
From the text: (§1) The test compounds were first dissolved in acetone in an amount equal to 3% of the final volume and then suspended at the desired concentration (in ppm) in acetone and purified water (50/50 mix by volume) containing 250 ppm of the surfactant Trem® 014 (polyhydric alcohol esters). The resulting test suspensions were then used in tests A-E. Spraying a 200 ppm test suspension to the point of run-off on the test plants was the equivalent of a rate of 500 g/ha.
Grape seedlings were inoculated with a spore suspension of Plasmopara viticola (the causal agent of grape downy mildew) and incubated in a saturated atmosphere at 20° C. for 24 h. After a short drying period, the test suspension was sprayed to the point of run-off on the grape seedlings and then moved to a growth chamber at 20° C. for 5 days, after which the test units were placed back into a saturated atmosphere at 20° C. for 24 h. Upon removal, disease ratings were made.
(§2) Results for Tests A-F are given in Table A. In the table, a rating of 100 indicates 100% disease control and a rating of 0 indicates no disease control (relative to the controls). A dash (-) indicates no test results.

[1] = test system: Erysiphe graminis f. sp. tritici; test: Test E: wheat powdery mildew, spray the day before inoculation (disease rating, 100 = 100% disease control)
From the text: as §1
The test suspension was sprayed to the point of run-off on wheat seedlings. The following day the seedlings were inoculated with a spore dust of Erysiphe graminis f. sp. tritici, (the causal agent of wheat powdery mildew) and incubated in a growth chamber at 20° C. for 7 days, after which disease ratings were made.
as §2

Phytophthora infestans [2] = test: whole plant or invertebrate; conditions: for Test D disease rating (100 = 100% disease control, 0 = no disease control): tomato late blight
Phytophthora infestans [3] = test: whole plant or invertebrate; conditions: for Test C disease rating (100 = 100% disease control, 0 = no disease control): tomato late blight
[4] = Plasmopara viticola, 144 h, spray 24 h after inoculation, tested at 40 ppm, read-out: Test B disease rating (100 = 100% disease control, 0 = no disease control)
[5] = Blumeria graminis, topical, 168 h, spray the day before inoculation, tested at 40 ppm, read-out: Test E disease rating (100 = 100% disease control, 0 = no disease control)
[6] = Phytophthora infestans, in Solanum lycopersicum, topical, 96 h, read-out: Test D disease rating (100 = 100% disease control, 0 = no disease control)
[7] = Phytophthora infestans, in Solanum lycopersicum, 144 h, read-out: Test C disease rating (100 = 100% disease control, 0 = no disease control)
[8] = spray the day before inoculation, tested at 40 ppm
[9] = spray 24 h after inoculation, compounds without asterisk (not 40 or 10 ppm)
[10] = spray the day before inoculation, compounds without asterisk (not 40 or 10 ppm)
[11] = spray 17 h after inoculation, compounds without asterisk (not 40 or 10 ppm)

Row | SMILES | pest or weed control at 40 ppm (Plasmopara viticola; [4]) | pest or weed control at 40 ppm [1, 5] | pest or weed control at 40 ppm (Phytophthora infestans [2]; [6]) | pest or weed control at 40 ppm (Phytophthora infestans [3]; [7]) | other results
1 | CC[C@H](c1ccccc1)N(C)C(=O)c1coc(C2CCN(C(=O)Cn3nc(C(F)(F)F)cc3C)CC2)n1 [Compound 152, N-methyl-2-[1-[[5-methyl-3-(trifluoromethyl)-1H-pyrazol-1-yl]acetyl]-4-piperidinyl]-N-[(1R)-1-phenylpropyl]-4-oxazolecarboxamide] | 99% | 0% | 99% | 100% | 
2 | Cc1ccc(C)c(CC(=O)N2CCC(c3nc(C(=O)N(C)[C@@H]4CCCc5ccccc54)co3)CC2)c1 [Compound 153, 2-[1-[(2,5-dimethylphenyl)acetyl]-4-piperidinyl]-N-methyl-N-[(1R)-1,2,3,4-tetrahydro-1-naphthalenyl]-4-oxazolecarboxamide] | 99% | 0% | 98% | 100% | 
3 | CC[C@H](c1ccccc1)N(C)C(=O)c1coc(C2CCN(C(=O)Cc3cc(C)ccc3C)CC2)n1 [Compound 154, 2-[1-[(2,5-dimethylphenyl)acetyl]-4-piperidinyl]-N-methyl-N-[(1R)-1-phenylpropyl]-4-oxazolecarboxamide] | 99% | 0% | 68% | 100% | 
4 | Cc1cc(C(F)(F)F)nn1CC(=O)N1CCC(c2nc(C(=O)N(C)C3CCC(=O)c4ccccc43)cs2)CC1 (centres unmarked) [Compound 211, N-methyl-2-[1-[[5-methyl-3-(trifluoromethyl)-1H-pyrazol-1-yl]acetyl]-4-piperidinyl]-N-(1,2,3,4-tetrahydro-4-oxo-1-naphthalenyl)-4-thiazolecarboxamide] | 99% | 0% | 99% | 100% | 
5 | Cc1cc(C(F)(F)F)nn1CC(=O)N1CC=C(c2nc(C(=O)N(C)[C@@H]3CCCc4ccccc43)cs2)CC1 [Compound 218, N-methyl-2-[1,2,3,6-tetrahydro-1-[[5-methyl-3-(trifluoromethyl)-1H-pyrazol-1-yl]acetyl]-4-pyridinyl]-N-[(1R)-1,2,3,4-tetrahydro-1-naphthalenyl]-4-thiazolecarboxamide] | 91% | 0% | 99% | 100% | 
6 | Cc1cc(C(F)(F)F)nn1CC(=O)N1CCN(c2nc(C(=O)N(C)[C@@H]3CCCc4ccccc43)cs2)CC1 [Compound 220, N-methyl-2-[4-[[5-methyl-3-(trifluoromethyl)-1H-pyrazol-1-yl]acetyl]-1-piperazinyl]-N-[(1R)-1,2,3,4-tetrahydro-1-naphthalenyl]-4-thiazolecarboxamide] | 95% | 0% | 98% | 100% | 
7 | Cc1cc(C(F)(F)F)nn1CC(=O)N1CCC(c2nc(C(=O)N(C)C3c4ccccc4CC3(C)C)cs2)CC1 (centres unmarked) [Compound 222, N-(2,3-dihydro-2,2-dimethyl-1H-inden-1-yl)-N-methyl-2-[1-[[5-methyl-3-(trifluoromethyl)-1H-pyrazol-1-yl]acetyl]-4-piperidinyl]-4-thiazolecarboxamide] | 100% | 0% | 99% | 100% | 
8 | Cc1cc(C(F)(F)F)nn1CC(=O)N1CCC(c2nc(C(=O)N(C)C3c4ccccc4CC3C)cs2)CC1 (centres unmarked) [Compound 226, N-(2,3-dihydro-2-methyl-1H-inden-1-yl)-N-methyl-2-[1-[[5-methyl-3-(trifluoromethyl)-1H-pyrazol-1-yl]acetyl]-4-piperidinyl]-4-thiazolecarboxamide] | 100% | 0% | 99% | 100% | 
9 | Cc1cc(C(F)(F)F)nn1CC(=O)N1CCC(n2cc(C(=O)N(C)[C@@H]3CCCc4ccccc43)cn2)CC1 [Compound 233, N-methyl-1-[1-[[5-methyl-3-(trifluoromethyl)-1H-pyrazol-1-yl]acetyl]-4-piperidinyl]-N-[(1R)-1,2,3,4-tetrahydro-1-naphthalenyl]-1H-pyrazole-4-carboxamide] | 99% | 0% | 99% | 100% | 
10 | CN(C(=O)c1csc(C2CCN(C(=O)Cn3nc(Cl)cc3Cl)CC2)n1)[C@@H]1CCCc2ccccc21 [Compound 238, 2-[1-[(3,5-dichloro-1H-pyrazol-1-yl)acetyl]-4-piperidinyl]-N-methyl-N-[(1R)-1,2,3,4-tetrahydro-1-naphthalenyl]-4-thiazolecarboxamide] |  |  |  |  | pest or weed control at 10 ppm (Plasmopara viticola; Plasmopara viticola, 144 h, spray 24 h after inoculation, tested at 10 ppm, read-out: Test B disease rating (100 = 100% disease control, 0 = no disease control)): 100%; pest or weed control at 10 ppm ([1]; Blumeria graminis, topical, 168 h, spray the day before inoculation, tested at 10 ppm, read-out: Test E disease rating (100 = 100% disease control, 0 = no disease control)): 0%; pest or weed control at 10 ppm (Phytophthora infestans [2]; [6]): 99%; pest or weed control at 10 ppm (Phytophthora infestans [3]; [7]): 100%
11 | CN(C(=O)c1csc(C2CCN(C(=O)Cn3nc(C(F)(F)F)cc3Cl)CC2)n1)[C@@H]1CCCc2ccccc21 [Compound 249, 2-[1-[[5-chloro-3-(trifluoromethyl)-1H-pyrazol-1-yl]acetyl]-4-piperidinyl]-N-methyl-N-[(1R)-1,2,3,4-tetrahydro-1-naphthalenyl]-4-thiazolecarboxamide] | 100% | 0% | 99% | 100% | 
12 | Cc1cc(C(F)(F)F)nn1CC(=O)N1CCC(c2nc(C(=S)N(C)[C@@H]3CCCc4ccccc43)cs2)CC1 [Compound 289, N-methyl-2-[1-[[5-methyl-3-(trifluoromethyl)-1H-pyrazol-1-yl]acetyl]-4-piperidinyl]-N-[(1R)-1,2,3,4-tetrahydro-1-naphthalenyl]-4-thiazolecarbothioamide] |  |  |  |  | Test B disease rating (100 = 100% disease control, 0 = no disease control) (Plasmopara viticola; sprayed 24 h after inoculation, tested at 40 ppm (*)): 100; Test E disease rating (100 = 100% disease control, 0 = no disease control) ([1]; sprayed the day before inoculation, 7 days at 20° C., tested at 40 ppm (*)): 65; Test D disease rating (100 = 100% disease control, 0 = no disease control) (Phytophthora infestans [2]; sprayed 17 h after inoculation, tested at 40 ppm (*)): 99; Test C disease rating (100 = 100% disease control, 0 = no disease control) (Phytophthora infestans [3]; sprayed the day before inoculation, tested at 40 ppm (*)): 100
13 | Cc1cc(C(F)(F)F)nn1CC(=O)N1C=CC(c2nc(C(=O)N(C)[C@@H]3CCCc4ccccc43)cs2)CC1 (stereo partly drawn) [Compound 315, N-methyl-2-[1,2,3,4-tetrahydro-1-[[5-methyl-3-(trifluoromethyl)-1H-pyrazol-1-yl]acetyl]-4-pyridinyl]-N-[(1R)-1,2,3,4-tetrahydro-1-naphthalenyl]-4-thiazolecarboxamide] |  |  |  |  | Test B disease rating (100 = 100% disease control, 0 = no disease control) (Plasmopara viticola; sprayed 24 h after inoculation, tested at 10 ppm (**)): 72; Test E disease rating (100 = 100% disease control, 0 = no disease control) ([1]; sprayed the day before inoculation, 7 days at 20° C., tested at 10 ppm (**)): 0; Test D disease rating (100 = 100% disease control, 0 = no disease control) (Phytophthora infestans [2]; sprayed 17 h after inoculation, tested at 10 ppm (**)): 88; Test C disease rating (100 = 100% disease control, 0 = no disease control) (Phytophthora infestans [3]; sprayed the day before inoculation, tested at 10 ppm (**)): 100
14 | C[C@H](c1ccccc1)N(C)C(=O)c1csc(C2CCN(C(=O)Cc3cccc(F)c3F)CC2)n1 [compound 46] |  |  |  |  | Test B disease rating (100 = 100% disease control, 0 = no disease control) (Plasmopara viticola; spray 24 h after inoculation, tested at 40 ppm): 0%; Test E disease rating (100 = 100% disease control, 0 = no disease control) [1, 8]: 0%; Test D disease rating (100 = 100% disease control, 0 = no disease control) (Phytophthora infestans [2]; spray 17 h after inoculation, tested at 40 ppm): 0%; Test C disease rating (100 = 100% disease control, 0 = no disease control) (Phytophthora infestans [3]; [8]): 0%
15 | COc1ccccc1CC(=O)N1CCN(c2nc(C(=O)N(C)[C@H](C)c3ccccc3)co2)CC1 [compound 53] |  |  |  |  | Test B disease rating (100 = 100% disease control, 0 = no disease control) (Plasmopara viticola; [9]): 20%; Test E disease rating (100 = 100% disease control, 0 = no disease control) [1, 10]: 0%; Test D disease rating (100 = 100% disease control, 0 = no disease control) (Phytophthora infestans [2]; [11]): 89%; Test C disease rating (100 = 100% disease control, 0 = no disease control) (Phytophthora infestans [3]; [10]): 100%
16 | Cc1ccc(C)c(CC(=O)N2CCC(c3nc(C(=O)N(C)[C@H](C)c4cccc(C(F)(F)F)c4)cs3)CC2)c1 [compound 56] |  |  |  |  | Test B disease rating (100 = 100% disease control, 0 = no disease control) (Plasmopara viticola; [9]): 31%; Test E disease rating (100 = 100% disease control, 0 = no disease control) [1, 10]: 0%; Test D disease rating (100 = 100% disease control, 0 = no disease control) (Phytophthora infestans [2]; [11]): 0%; Test C disease rating (100 = 100% disease control, 0 = no disease control) (Phytophthora infestans [3]; [10]): 93%
17 | Cc1cccc(CC(=O)N2CCC(c3nc(C(=O)N(C)C(C)c4ncc(Cl)cc4Cl)cs3)CC2)c1 (centres unmarked) [compound 61] |  |  |  |  | Test B disease rating (100 = 100% disease control, 0 = no disease control) (Plasmopara viticola; [9]): 2%; Test E disease rating (100 = 100% disease control, 0 = no disease control) [1, 10]: 0%; Test D disease rating (100 = 100% disease control, 0 = no disease control) (Phytophthora infestans [2]; [11]): 0%; Test C disease rating (100 = 100% disease control, 0 = no disease control) (Phytophthora infestans [3]; [10]): 69%
